Assay results as given in patent US6417167B1, “Lyophilized compositions containing shingoglycolipid and process for preparing them” (Kirin Beer Kabushiki Kaisha, priority 1997, dated 2002).

What was measured:
Type in all cases: physicochemical
[1] = Examination of optimal formulation: re-solubility after storage; details: lyophilized, Polysorbate 20 0.5%
Procedure: (§1) First, Polysorbate 20 was dissolved in distilled water in a concentration of 0.5%, and sucrose and histidine or sodium deoxycholate in such concentrations listed on Table 11. Next, 20 mg of the active component (KRN7000) was weighed and stirred in 100 ml of the solvents in a heated bath to 80° C. for 20 minutes in order to form a solution. After cooling with running water, the mixture was filtered through a 0.22 μm filter, and transparent colorless glass vials having a volume of 5 ml were charged with a 1 ml portion of each of a variety of solutions thus obtained and subjected to lyophilization. Lyophilization was carried out under the condition of preliminary freezing at −40° C. for 2 hours and drying at −20° C. for 24 hours, 10° C. for 12 hours, and finally at 25° C. for 5 hours to give the lyophilized product. The degree of vacuum was set at 0.1 Torr or less during drying step.
After the lyophilization step, the lyophilized composition thus obtained was stored at 25° C. or 50° C. After storage at 25° C. for 2 months or at 50° C. for 2 weeks, the lyophilized composition was reconstituted in 1 ml of distilled water for injection, left standing for 30 minutes, and solubility was judged when the foams generated on reconstitution disappeared. The samples judged to be solution after storage at 25° C. for 2 months were further stored, and judged again of their solubility after storage for 4 months.
The solubility was judged by cleaning the outside of the vial and placing it beneath the white light source in a darkroom for observation with naked eye at the position of a luminous intensity of about 5,000 lux. When the sample was clear with no precipitates, it was judged that the active component was dissolved.

[2] = Addition effects of sodium deoxycholate and histidine in the absence of a sugar; details: lyophilized, Polysorbate 20 0.5%, no sugar, 1%, 50° C.
Procedure: Addition effects of sodium deoxycholate and histidine in the absence of a sugar as the excipient was examined.
as §1, with “and” for “and sucrose and”, “a concentration of 1.0%.” for “such concentrations listed on Table 11.”
After the lyophilization step, the lyophilized composition thus obtained was stored at 50° C. After storage for 3 days or 2 weeks, the lyophilized composition was reconstituted in 1 ml of distilled water for injection, left standing for 30 minutes, and solubility was judged when the foams generated on reconstitution disappeared. […]

[3] = Cooling condition after dissolution with heating 1: turbidity (absorbance 660 nm, kaolin standard); details: Polysorbate 20 0.5%, histidine 0.75%, sucrose 5.6%; cooling 73° C. → 30° C., 23 minutes; reconstituted in 1 ml distilled water
Procedure: First, Polysorbate 20 was dissolved in distilled water in a concentration of 0.5%, histidine in a concentration of 0.75%, and sucrose in a concentration of 5.6%. Next, 800 mg of the active component (KRN7000) was weighed and stirred in 4 liters of the solvent under heating at 73° C. for 30 minutes in order to form a solution. After dissolution, the mixture was divided into about 500 ml portions, cooled with stirring from 73° C. to 30° C. (6 minutes), from 73° C. to 30° C. (23 minutes), and from 73° C. to 30° C. (120 minutes). […]
The turbidity of the solutions prepared respective cooling conditions before or after the filtration step, and the lyophilized composition thus obtained which were reconstituted after leaving standing at room temperature (25° C. ) for 3 hours from the lyophilization step, were measured. In this connection, the lyophilized composition was reconstituted in 1 ml of distilled water for injection, left standing for 30 minutes, and turbidity was measured when the foams generated on reconstitution disappeared.
The turbidity was measured by the following method: various dilutions including 50-fold dilution (kaolin 2 μg/ml, turbidity 2.00), 100-fold dilution (kaolin 1 μg/ml, turbidity 1.00), and 200-fold dilution (kaolin 0.5 μg/ml, turbidity 0.50) were prepared by diluting the turbidity standard (kaolin, 0.1 mg/ml) with distilled water. […]

Structure (SMILES): CCCCCCCCCCCCCCCCCCCCCCCCCC(=O)N[C@@H](CO[C@H]1O[C@H](CO)[C@H](O)[C@H](O)[C@H]1O)[C@H](O)[C@H](O)CCCCCCCCCCCCCC [KRN7000, (2S,3S,4R)-1-(α-D-galactopyranosyloxy)-2-hexacosanoylamino-3,4-octadecanediol]
- Re-solubility after storage (by naked eye) ([1]; Sucrose 1.1%, Histidine, 4%, 50° C., 2 weeks): + (not dissolved (or deposited))
- Re-solubility after storage (by naked eye) ([1]; Sucrose 3.1%, Histidine, 3%, 50° C., 2 weeks): − (dissolved)
- Re-solubility after storage (by naked eye) ([1]; Sucrose 3.2%, Histidine, 2%, 50° C., 2 weeks): − (dissolved)
- Re-solubility after storage (by naked eye) ([1]; Sucrose 4.8%, Sodium deoxycholate, 0.2%, 25° C., 2 months): + (not dissolved (or deposited))
- Re-solubility after storage (by naked eye) ([1]; Sucrose 4.8%, Sodium deoxycholate, 0.5%, 25° C., 2 months): − (dissolved)
- Re-solubility after storage (by naked eye) ([1]; Sucrose 4.8%, Sodium deoxycholate, 0.5%, 25° C., 4 months): − (dissolved)
- Re-solubility after storage (by naked eye) ([1]; Sucrose 4.8%, Sodium deoxycholate, 1%, 25° C., 2 months): − (dissolved)
- Re-solubility after storage (by naked eye) ([1]; Sucrose 4.8%, Sodium deoxycholate, 1%, 25° C., 4 months): − (dissolved)
- Re-solubility after storage (by naked eye) ([1]; Sucrose 4.8%, Sodium deoxycholate, 2%, 25° C., 2 months): − (dissolved)
- Re-solubility after storage (by naked eye) ([1]; Sucrose 4.8%, Sodium deoxycholate, 2%, 25° C., 4 months): − (dissolved)
- Re-solubility after storage (by naked eye) ([1]; Sucrose 5.0%, Histidine, 2%, 50° C., 2 weeks): − (dissolved)
- Re-solubility after storage (by naked eye) ([1]; Sucrose 5.1%, Histidine, 1%, 50° C., 2 weeks): − (dissolved)
- Re-solubility after storage (by naked eye) ([1]; Sucrose 6.9%, Histidine, 1%, 50° C., 2 weeks): − (dissolved)
- Re-solubility after storage (by naked eye) ([1]; Sucrose 7.9%, Histidine, 0.5%, 50° C., 2 weeks): + (not dissolved (or deposited))
- Re-solubility after storage (by naked eye) ([1]; Sucrose 9.6%, Histidine, 2%, 50° C., 2 weeks): − (dissolved)
- Re-solubility after storage (by naked eye) ([1]; Sucrose 9.6%, Sodium deoxycholate, 0.2%, 25° C., 2 months): + (not dissolved (or deposited))
- Re-solubility after storage (by naked eye) ([1]; Sucrose 9.6%, Sodium deoxycholate, 0.5%, 25° C., 2 months): − (dissolved)
- Re-solubility after storage (by naked eye) ([1]; Sucrose 9.6%, Sodium deoxycholate, 0.5%, 25° C., 4 months): − (dissolved)
- Re-solubility after storage (by naked eye) ([1]; Sucrose 9.6%, Sodium deoxycholate, 1%, 25° C., 2 months): − (dissolved)
- Re-solubility after storage (by naked eye) ([1]; Sucrose 9.6%, Sodium deoxycholate, 1%, 25° C., 4 months): − (dissolved)
- Re-solubility after storage (by naked eye) ([1]; Sucrose 9.6%, Sodium deoxycholate, 2%, 25° C., 2 months): − (dissolved)
- Re-solubility after storage (by naked eye) ([1]; Sucrose 9.6%, Sodium deoxycholate, 2%, 25° C., 4 months): − (dissolved)
- Re-solubility after storage (by naked eye) ([1]; Sucrose 19.2%, Sodium deoxycholate, 0.1%, 25° C., 2 months): + (not dissolved (or deposited))
- Re-solubility after storage (by naked eye) ([1]; Sucrose 19.2%, Sodium deoxycholate, 0.2%, 25° C., 2 months): + (not dissolved (or deposited))
- Re-solubility after storage (by naked eye) ([1]; Sucrose 19.2%, Sodium deoxycholate, 0.5%, 25° C., 2 months): + (not dissolved (or deposited))
- Re-solubility after storage (by naked eye) ([1]; Sucrose 19.2%, Sodium deoxycholate, 1%, 25° C., 2 months): + (not dissolved (or deposited))
- Re-solubility after storage (by naked eye) ([1]; Sucrose 19.2%, Sodium deoxycholate, 2%, 25° C., 2 months): + (not dissolved (or deposited))
- Re-solubility after storage (by naked eye) ([2]; Histidine, 2 weeks): + (not dissolved (or deposited))
- Re-solubility after storage (by naked eye) ([2]; Sodium deoxycholate, 3 days): + (not dissolved (or deposited))
- Turbidity Lyophilized composition [3]: 0.36
